Experiments:
[1] = tested on: FCA-induced inflammation of the rat hind paw; assay: Freund's complete adjuvant (FCA) model of inflammatory pain, reversal of hyperalgesia; assay type: in vivo; settings: rats
Method: Test Animals: Each experiment uses rats weighing between 200-260 g at the start of the experiment. The rats are group-housed and have free access to food and water at all times, except prior to oral administration of a compound of Formula I when food is removed for 16 hours before dosing. A control group acts as a comparison to rats treated with a compound of Formula I. The control group is administered the carrier for the compound of Formula I. The volume of carrier administered to the control group is the same as the volume of carrier and compound of Formula I administered to the test group.
Inflammatory Pain: To assess the actions of the compounds of Formula I on the treatment or prevention of inflammatory pain the Freund's complete adjuvant (“FCA”) model of inflammatory pain is used. […] 24 hour post injection, the animal is assessed for response to noxious mechanical stimuli by determining the PWT, or to noxious thermal stimuli by determining the PWL, as described below. […] Responses to noxious mechanical or thermal stimuli are then determined 1, 3, 5 and 24 hours post administration. […]
Response to Mechanical Stimuli as an Assessment of Mechanical Hyperalgesia: The paw pressure assay can be used to assess mechanical hyperalgesia. For this assay, hind paw withdrawal thresholds (PWT) to a noxious mechanical stimulus are determined using an analgesymeter (Model 7200, commercially available from Ugo Basile of Italy) as described in C. […] PWT is determined once for each rat at each time point and only the affected (ipsilateral) paw is tested.
Response to Thermal Stimuli as an Assessment of Thermal Hyperalgesia: The plantar test can be used to assess thermal hyperalgesia. For this test, hind paw withdrawal latencies (PWL) to a noxious thermal stimulus are determined using a plantar test apparatus (commercially available from Ugo Basile of Italy) following the technique described by K. Hargreaves et al., “A New and Sensitive Method for Measuring Thermal Nociception in Cutaneous Hyperalgesia,” Pain 32(1):77-88 (1988). […] Three latencies are determined at each time point and averaged. […]

human recombinant TRPV1 [2] = target: T1, human recombinant TRPV1 (Homo sapiens (Human), UniProt Q8NER1); assay: TRPV1 Capsaicin-Based Assay (Protocol 2, TRPV1/CHO cells, Fluo-4, FLIPR); assay type: cell-based; settings: TRPV1/CHO cells, capsaicin 100 nM final; read-out: IC50 value by the Capsaicin-Based Assay
T1 sequence (Q8NER1 whole entry): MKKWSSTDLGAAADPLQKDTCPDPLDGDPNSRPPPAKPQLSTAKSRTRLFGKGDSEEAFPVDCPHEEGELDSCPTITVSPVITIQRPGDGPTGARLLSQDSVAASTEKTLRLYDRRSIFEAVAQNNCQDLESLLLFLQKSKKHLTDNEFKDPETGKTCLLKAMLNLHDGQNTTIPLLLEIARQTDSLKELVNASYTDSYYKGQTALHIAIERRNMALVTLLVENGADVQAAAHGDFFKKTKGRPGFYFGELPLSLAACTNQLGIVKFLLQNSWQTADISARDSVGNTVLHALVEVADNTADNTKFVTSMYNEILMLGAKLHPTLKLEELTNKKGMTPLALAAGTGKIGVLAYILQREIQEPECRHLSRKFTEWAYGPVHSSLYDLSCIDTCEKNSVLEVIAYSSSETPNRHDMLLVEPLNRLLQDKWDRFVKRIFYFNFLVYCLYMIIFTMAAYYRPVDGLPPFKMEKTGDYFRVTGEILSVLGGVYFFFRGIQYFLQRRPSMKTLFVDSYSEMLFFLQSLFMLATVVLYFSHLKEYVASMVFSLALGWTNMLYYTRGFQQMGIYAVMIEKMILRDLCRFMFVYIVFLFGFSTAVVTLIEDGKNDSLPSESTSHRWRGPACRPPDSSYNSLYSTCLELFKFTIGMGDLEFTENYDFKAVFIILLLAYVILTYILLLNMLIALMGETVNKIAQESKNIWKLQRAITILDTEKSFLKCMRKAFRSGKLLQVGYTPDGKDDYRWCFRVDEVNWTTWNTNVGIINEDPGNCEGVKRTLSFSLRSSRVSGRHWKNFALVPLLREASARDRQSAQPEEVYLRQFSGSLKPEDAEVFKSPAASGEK
How it was run: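 CHO cells stably expressing human TRPV1 were loaded with 3 μM Fluo-4 for 1 h, then given compounds in HBSS/1 mM CaCl2/20 mM HEPES pH 7.4 with 1% DMSO for 2 min before 100 nM capsaicin (final). FLIPR fluorescence recorded over the full course; curves fitted.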

human recombinant TRPV1 [3] = target: T1, human recombinant TRPV1; assay: TRPV1 pH-Based Assay (Protocol 2, Ca2+ response in TRPV1/CHO cells, Fura-2); assay type: cell-based; settings: TRPV1/CHO cells, pH 5.0-5.1; read-out: IC50 value by the pH-Based Assay
How it was run: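 CHO cells stably expressing human TRPV1, Fura-2 loaded, given compound (1% DMSO in 10× stock) before acid challenge to final pH 5.0-5.1 (3.2 or 3.3 mM H2SO4). 340/380 nm ratio recorded at 0.5 Hz; maximal ratio after agonist addition versus 16-point baseline used as response.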

IC50 (human recombinant TRPV1 [2]) [nM] | IC50 (human recombinant TRPV1 [3]) [nM] | Compound | Percentage reversal of hyperalgesia, % Reversal (3 mg/Kg, 3 hours post administration) [1] [%]
≤ 50 | ≤ 50 | C[C@H]1CN(c2ncc(C[C@@H](O)CO)cc2C(F)(F)F)CCN1C(=O)Nc1nc2ccc(F)cc2s1 [AGU] | 71
 | ≤ 50 | Cc1ccc2nc(NC(=O)N3CCN(c4ncc(C[C@@H](O)CO)cc4F)C[C@@H]3C)sc2c1 [AEM] | 59.7

Reference: patent publication US8921373B2, “Compounds having TRPV1 antagonistic activity and uses thereof” (Shionogi & Co., Ltd., priority 2010, dated 2014)
